Reference: patent US9878982B2, “Pyridine derivatives and anti-mycobacterial use thereof” (priority 2014, dated 2018)
Values after ≈ are worked out from the molar mass of the structure shown.

Tests used:
[1] = test system: M. tuberculosis H37Rv; assay: In vitro efficacy test using the H37Rv strain, Microplate Alamar Blue Assay (MABA) MIC; type: cell-based, Mycobacterium tuberculosis; settings: aerobic, 7H9 medium, Alamar Blue; for MIC: Mycobacterium tuberculosis, H37RV, read-out: M. tuberculosis H37Rv MABA (MIC)
[2] = test system: Mycobacterium smegmatis strain ATCC19420; assay: In vitro efficacy test using Mycobacterium smegmatis strain ATCC19420 (MIC); type: cell-based; settings: CA-MHB + 0.02% Tween 80, 30° C., read after 72 hours; for MIC: Mycolicibacterium smegmatis, ATCC19420, 72 h
[3] = test system: Vero Cell; assay: Vero cell cytotoxicity (IC50); type: cell-based; settings: African green monkey kidney cells; for IC50: Chlorocebus sabaeus, Vero
[4] = test system: M. tuberculosis H37R; assay: microbe, parasite or virus in culture; type: cell-based, Mycobacterium tuberculosis; settings: for MIC: Mycobacterium tuberculosis, H37R, read-out: M. tuberculosis H37R LORA (MIC)
[5] = test system: Hela; assay: Hela cell cytotoxicity (CC50); settings: human cervical cancer cells; half of the toxic concentration
[6] = Hela cell cytotoxicity (CC50); settings: human, HeLa cells (human cervical cancer cells), CC50_Hela, half of the toxic concentration

Compound | M. tuberculosis H37Rv MABA (MIC) [1] | M. smegmatis ATCC19420 MIC [2] | Vero Cell (IC50) [3] | M. tuberculosis H37R LORA (MIC) [4] | CC50_Hela [5] | MIC [1] | MIC [2] | IC50 [3] | MIC [4] | CC50 [6]
COc1ncc(C2CCCC2)cc1C(c1ccccc1)C(O)(CCN(C)C)c1cccc2ccccc12 (centres unmarked) [Compound 64] | 2.33 µg/mL | 0.5 µg/mL | >50 µg/mL | 3.06 µg/mL | 28.75 µg/mL (≈ 58.1 µM) | – | – | – | – | –
COc1ccc(C(c2cc(-c3ccccc3)cnc2OC)C(O)(CCN(C)C)c2ccccc2)cc1 (centres unmarked) [Compound 237, 4-(dimethylamino)-1-(2-methoxy-5-phenylpyridin-3-yl)-1-(4-methoxyphenyl)-2-phenylbutan-2-ol] | – | – | – | – | – | 1.89 µg/mL (≈ 3.92 µM) | 0.5 µg/mL | 24.3 µg/mL (≈ 50.3 µM) | 3.07 µg/mL (≈ 6.36 µM) | 15.6 µg/mL (≈ 32.4 µM)
COc1ncc(-c2csc(Cl)c2)cc1C(c1ccccc1)C(O)(CCN(C)C)c1cccc2ccccc12 (centres unmarked) [Compound 245, 1-(5-(5-chlorothiophen-3-yl)-2-methoxypyridin-3-yl)-4-(dimethylamino)-2-(naphthalen-1-yl)-1-phenylbutan-2-ol] | – | – | – | – | – | 0.86 µg/mL (≈ 1.58 µM) | ≤ 0.0625 µg/mL | > 32 µg/mL | 1.39 µg/mL (≈ 2.56 µM) | > 64 µg/mL
COc1ncc(-c2ccsc2Cl)cc1C(c1ccccc1)C(O)(CCN(C)C)c1cccc2ccccc12 (centres unmarked) [Compound 251, 1-(5-(2-chlorothiophen-3-yl)-2-methoxypyridin-3-yl)-4-(dimethylamino)-2-(naphthalen-1-yl)-1-phenylbutan-2-ol] | – | – | – | – | – | 0.64 µg/mL (≈ 1.18 µM) | 0.25 µg/mL | > 32 µg/mL | 1.39 µg/mL (≈ 2.56 µM) | > 64 µg/mL
COc1ncc(C2CCSCC2)cc1C(c1ccccc1)C(O)(CCN(C)C)c1cccc2ccccc12 (centres unmarked) [Compound 255, 4-(dimethylamino)-1-(2-methoxy-5-(tetrahydro-2H-thiopyran-4-yl)pyridin-3-yl)-2-(naphthalen-1-yl)-1-phenylbutan-2-ol] | – | – | – | – | – | 0.48 µg/mL (≈ 0.911 µM) | 0.25 µg/mL | > 32 µg/mL | 8.33 µg/mL (≈ 15.8 µM) | > 64 µg/mL
COc1ncc(C2=CCSCC2)cc1C(c1ccccc1)C(O)(CCN(C)C)c1cccc2ccccc12 (centres unmarked) [Compound 259, 1-(5-(3,6-dihydro-2H-thiopyran-4-yl)-2-methoxypyridin-3-yl)-4-(dimethylamino)-2-(naphthalen-1-yl)-1-phenylbutan-2-ol] | – | – | – | – | – | 0.32 µg/mL (≈ 0.61 µM) | 0.125 µg/mL | > 32 µg/mL | 4.33 µg/mL (≈ 8.25 µM) | > 64 µg/mL
CC#Cc1cnc(OC)c(C(c2ccccc2)C(O)(CCN(C)C)c2cccc3ccccc23)c1 (centres unmarked) [Compound 263, 4-(dimethylamino)-1-(2-methoxy-5-prop-1-ynyl-3-pyridyl)-2-(1-naphthyl)-1-phenylbutan-2-ol] | – | – | – | – | – | 1.38 µg/mL (≈ 2.97 µM) | 0.5 µg/mL | > 32 µg/mL | 2.08 µg/mL (≈ 4.48 µM) | > 64 µg/mL
COc1ncc(N2CCOCC2)cc1C(c1ccccc1)C(O)(CCN(C)C)c1cccc2ccccc12 (centres unmarked) [Compound 269, 4-(dimethylamino)-1-(2-methoxy-5-morpholinopyridin-3-yl)-2-(naphthalen-1-yl)-1-phenylbutan-2-ol] | – | – | – | – | – | 5.64 µg/mL (≈ 11 µM) | 0.25 µg/mL | > 32 µg/mL | 6.3 µg/mL (≈ 12.3 µM) | 17.4 µg/mL (≈ 34.1 µM)
COc1ncc(-c2ccc(Cl)cc2)cc1C(c1ccccc1)C(O)(CCN(C)C)c1cc(F)cc(F)c1 (centres unmarked) [Compound 280, 1-(5-(4-chlorophenyl)-2-methoxypyridin-3-yl)-2-(3,5-difluorophenyl)-4-dimethylamino-1-phenylbutan-2-ol] | – | – | – | – | – | 0.04 µg/mL (≈ 0.0765 µM) | 0.0156 µg/mL | > 32 µg/mL | 0.16 µg/mL (≈ 0.306 µM) | 35 µg/mL (≈ 66.9 µM)
COc1ncc(-c2ccc(C(F)(F)F)cc2)cc1C(c1ccccc1)C(O)(CCN(C)C)c1cccc2ccccc12 (centres unmarked) [Compound 285, 4-(dimethylamino)-1-(2-methoxy-5-(4-(trifluoromethyl)phenyl)pyridin-3-yl)-2-(naphthalen-1-yl)-1-phenylbutan-2-ol] | – | – | – | – | – | 0.96 µg/mL (≈ 1.68 µM) | 0.0156 µg/mL | > 32 µg/mL | 0.63 µg/mL (≈ 1.1 µM) | > 64 µg/mL
COc1ncc(-c2ccc(Cl)cc2)cc1C(c1ccccc1)C(O)(CCN(C)C)c1cccc(F)c1F (centres unmarked) [Compound 287, 1-(5-(4-chlorophenyl)-2-methoxy-3-pyridyl)-2-(2,3-difluorophenyl)-4-dimethylamino-1-phenylbutan-2-ol] | – | – | – | – | – | 0.04 µg/mL (≈ 0.0765 µM) | 0.0312 µg/mL | > 32 µg/mL | 0.16 µg/mL (≈ 0.306 µM) | > 64 µg/mL
COc1ncc(-c2ccc(Cl)cc2)cc1C(c1ccccc1)C(O)(CCN(C)C)c1cccc(F)c1 (centres unmarked) [Compound 297] | – | – | – | – | – | 0.1 µg/mL (≈ 0.198 µM) | 0.0312 µg/mL | > 32 µg/mL | 0.74 µg/mL (≈ 1.47 µM) | 39.1 µg/mL (≈ 77.5 µM)
COc1ccc(-c2cnc(OC)c(C(c3ccccc3)C(O)(CCN(C)C)c3cccc4ccccc34)c2)cc1 (centres unmarked) [Compound 299, 4-(dimethylamino)-1-(2-methoxy-5-(4-methoxyphenyl)pyridin-3-yl)-2-(naphthalen-1-yl)-1-phenylbutan-2-ol] | – | – | – | – | – | 0.33 µg/mL (≈ 0.62 µM) | 0.125 µg/mL | > 32 µg/mL | 0.19 µg/mL (≈ 0.357 µM) | > 64 µg/mL
COc1ncc(-c2ccc(Cl)c(F)c2)cc1C(c1ccccc1)C(O)(CCN(C)C)c1cccc2ccccc12 (centres unmarked) [Compound 303, 1-(5-(4-chloro-3-fluorophenyl)-2-methoxypyridin-3-yl)-4-(dimethylamino)-2-(naphthalen-1-yl)-1-phenylbutan-2-ol] | – | – | – | – | – | 0.19 µg/mL (≈ 0.342 µM) | 0.0312 µg/mL | > 32 µg/mL | 0.52 µg/mL (≈ 0.937 µM) | > 64 µg/mL
COc1ncc(-c2ccc(Br)cc2)cc1C(c1ccccc1)C(O)(CCN(C)C)c1cccc(F)c1F (centres unmarked) [Compound 312, 1-(5-(4-bromophenyl)-2-methoxypyridin-3-yl)-2-(2,3-difluorophenyl)-4-(dimethylamino)-1-phenylbutan-2-ol] | – | – | – | – | – | 0.04 µg/mL (≈ 0.0705 µM) | 0.0156 µg/mL | > 32 µg/mL | 0.19 µg/mL (≈ 0.335 µM) | 31.3 µg/mL (≈ 55.2 µM)
COc1ncc(-c2ccc(Br)cc2)cc1C(c1ccccc1)C(O)(CCN(C)C)c1cc(F)cc(F)c1 (centres unmarked) [Compound 316, 1-(5-(4-bromophenyl)-2-methoxypyridin-3-yl)-2-(3,5-difluorophenyl)-4-dimethylamino-1-phenylbutan-2-ol] | – | – | – | – | – | 0.04 µg/mL (≈ 0.0705 µM) | 0.0156 µg/mL | > 32 µg/mL | 2.97 µg/mL (≈ 5.23 µM) | > 64 µg/mL
COc1ncc(-c2ccc(Br)cc2)cc1C(c1ccccc1)C(O)(CCN(C)C)c1cccc(F)c1 (centres unmarked) [Compound 319] | – | – | – | – | – | 0.09 µg/mL (≈ 0.164 µM) | 0.0312 µg/mL | > 32 µg/mL | 0.22 µg/mL (≈ 0.4 µM) | 49.2 µg/mL (≈ 89.5 µM)
COc1ncc(-c2ccc(Br)cc2)cc1C(c1ccc(Cl)cc1)C(O)(CCN(C)C)c1cccc2ccccc12 (centres unmarked) [Compound 325, 1-(5-(4-bromophenyl)-2-methoxypyridin-3-yl)-1-(4-chlorophenyl)-4-dimethylamino-2-(naphthalen-1-yl)butan-2-ol] | – | – | – | – | – | 0.04 µg/mL (≈ 0.0649 µM) | 0.0312 µg/mL | > 32 µg/mL | 0.125 µg/mL (≈ 0.203 µM) | > 64 µg/mL
COc1ncc(-c2ccc(Br)c(F)c2)cc1C(c1ccccc1)C(O)(CCN(C)C)c1cccc2ccccc12 (centres unmarked) [Compound 331, 1-(5-(4-bromo-3-fluorophenyl)-2-methoxypyridin-3-yl)-4-(dimethylamino)-2-(naphthalen-1-yl)-1-phenylbutan-2-ol] | – | – | – | – | – | 0.04 µg/mL (≈ 0.0667 µM) | 0.0625 µg/mL | > 32 µg/mL | 4.07 µg/mL (≈ 6.79 µM) | > 64 µg/mL
COc1ncc(C#Cc2ccccc2)cc1C(c1ccccc1)C(O)(CCN(C)C)c1cccc2ccccc12 (centres unmarked) [Compound 337, 4-(dimethylamino)-1-[2-methoxy-5-(2-phenylethynyl)-3-pyridyl]-2-(1-naphthyl)-1-phenyl-butan-2-ol] | – | – | – | – | – | 0.14 µg/mL (≈ 0.266 µM) | 0.25 µg/mL | > 32 µg/mL | 1.51 µg/mL (≈ 2.87 µM) | > 64 µg/mL
COc1ncc(-c2ccc(Cl)cc2)cc1C(c1ccccc1)C(O)(CCN(C)C)c1cc(Cl)cc(Cl)c1 (centres unmarked) [Compound 341, 1-(5-(4-chlorophenyl)-2-methoxypyridin-3-yl)-2-(3,5-dichlorophenyl)-4-(dimethylamino)-1-phenylbutan-2-ol] | – | – | – | – | – | 0.031 µg/mL (≈ 0.0558 µM) | ≤ 0.0625 µg/mL | > 32 µg/mL | 0.23 µg/mL (≈ 0.414 µM) | > 64 µg/mL
COc1ncc(-c2ccc(F)c(F)c2)cc1C(c1ccccc1)C(O)(CCN(C)C)c1cccc2ccccc12 (centres unmarked) [Compound 347] | – | – | – | – | – | 0.23 µg/mL (≈ 0.427 µM) | 0.0625 µg/mL | > 32 µg/mL | 0.51 µg/mL (≈ 0.947 µM) | > 64 µg/mL
COc1ncc(-c2ccc(Cl)cc2)cc1C(c1ccccc1)C(O)(CCN(C)C)c1cccc(Cl)c1 (centres unmarked) [Compound 351, 2-(3-chlorophenyl)-1-(5-(4-chlorophenyl)-2-methoxypyridin-3-yl)-4-(dimethylamino)-1-phenylbutan-2-ol] | – | – | – | – | – | 0.11 µg/mL (≈ 0.211 µM) | 0.0156 µg/mL | > 32 µg/mL | 0.16 µg/mL (≈ 0.307 µM) | 25.5 µg/mL (≈ 48.9 µM)
COc1ncc(-c2ccc(Br)cc2)cc1C(c1ccccc1)C(O)(CCN(C)C)c1cccc(Cl)c1 (centres unmarked) [Compound 355, 1-(5-(4-bromophenyl)-2-methoxypyridin-3-yl)-2-(3-chlorophenyl)-4-(dimethylamino)-1-phenylbutan-2-ol] | – | – | – | – | – | 0.17 µg/mL (≈ 0.3 µM) | 0.0156 µg/mL | > 32 µg/mL | 0.21 µg/mL (≈ 0.371 µM) | 53.2 µg/mL (≈ 94.1 µM)
COc1ncc(-c2ccc(OC(F)(F)F)cc2)cc1C(c1ccccc1)C(O)(CCN(C)C)c1cccc2ccccc12 (centres unmarked) [Compound 375, 4-(dimethylamino)-1 (2-methoxy-5-(4-(trifluoromethoxy)phenyl)pyridin-3-yl)-2-(naphthalen-1-yl)-1-phenylbutan-2-ol] | – | – | – | – | – | 0.031 µg/mL (≈ 0.0528 µM) | 0.0156 µg/mL | > 32 µg/mL | 0.61 µg/mL (≈ 1.04 µM) | > 64 µg/mL
